Experimental findings from ChEMBL document CHEMBL1201862, “PubChem BioAssay data set” (2004) are described below.

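Interpolation was linear, between the two tested concentrations surrounding the appropriate level; five concentrations were tested over 48 hours in 96-well plates. At the GI50, growth is halved.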 Activity calls are given as the source filed them. Cut-off read from the data, not from the text of the source: active = GI50 up to about 1.1 µM and inactive = higher. Where only a bound is given, the exact number is not on record here.

Test systems include UACC-257; SR; DU-145; MOLT-4; HT-29; CAKI-1; MDA-N; T47D; TK-10; KM12; SW-620; IGROV-1; Hs-578T; EKVX; COLO 205; NCI-H23; NCI-H522; UO-31; HCT-116; SF-295.
Assay in all cases: growth of human tumour cells (NCI), 48 h

Take `C[S+]([O-])c1cc(=O)c2ccccc2s1` (stereo not given): the GI50 in the experiment with UACC-257 is 3.4 µM (inactive); with SR it was 1.56 µM (inactive); in the experiment with DU-145, 18.7 µM (inactive); with MOLT-4, 2.05 µM (inactive); with HT-29 it was 4.35 µM (inactive); in the experiment with CAKI-1 it was 3.09 µM (inactive). Moreover, the GI50 in the experiment with MDA-N is 3.05 µM (inactive); in the experiment on T47D it was 2.52 µM (inactive); in the experiment with TK-10, 6.68 µM (inactive); with KM12, 12.6 µM (inactive); in the experiment with SW-620, 1.91 µM (inactive); in the experiment with IGROV-1, 17.5 µM (inactive). Moreover, the GI50 in the experiment with Hs-578T is 25.4 µM (inactive); in the experiment on EKVX, 5.71 µM (inactive); in the experiment on COLO 205, 2.32 µM (inactive); with NCI-H23, 6.19 µM (inactive); in the experiment on NCI-H522 it was 1.13 µM (inactive); in the experiment with UO-31 it was 11.9 µM (inactive). Also, the GI50 in the experiment on HCT-116 is 2.55 µM (inactive); in the experiment on SF-295, 17 µM (inactive).

As for `CC[C@]12C=CCN3CC[C@@]4(c5cc(N=O)c(OC)cc5N(C)[C@H]4[C@@](O)(C(=O)OC)[C@@H]1OC(C)=O)[C@@H]32`, the GI50 was > 100 µM (inactive) in the experiment with UACC-257; 47.8 µM (inactive) with SR; > 100 µM (inactive) in the experiment with DU-145; 35.6 µM (inactive) in the experiment on MOLT-4; 48.5 µM (inactive) in the experiment on HT-29; 41 µM (inactive) in the experiment with CAKI-1. For the same compound, the GI50 was 20.1 µM (inactive) in the experiment with MDA-N; 35 µM (inactive) in the experiment with T47D; > 100 µM (inactive) with TK-10; 90.8 µM (inactive) in the experiment with KM12; 31.6 µM (inactive) in the experiment on SW-620; > 100 µM (inactive) in the experiment with IGROV-1. Further, the GI50 is 73.5 µM (inactive) with Hs-578T; > 100 µM (inactive) in the experiment with EKVX; 38.2 µM (inactive) with COLO 205; > 100 µM (inactive) in the experiment with NCI-H23; 18.5 µM (inactive) with NCI-H522; > 100 µM (inactive) in the experiment with UO-31. Besides, the GI50 with HCT-116 was 50.7 µM (inactive); in the experiment with SF-295 it was 99.5 µM (inactive).

On to `COc1cc2c(c(O)c1C)C(=O)C(Cl)=CC2=O`, for which the GI50 is 9.95 µM (inactive) in the experiment with UACC-257; 0.662 µM (active) in the experiment on SR; 6.46 µM (inactive) in the experiment on DU-145; 1.88 µM (inactive) with MOLT-4; 10.8 µM (inactive) in the experiment on HT-29; 5.45 µM (inactive) in the experiment on CAKI-1. Also, the GI50 in the experiment with MDA-N was 4.07 µM (inactive); with T47D, 2.17 µM (inactive); in the experiment on TK-10 it was 7.41 µM (inactive); in the experiment on KM12 it was 19.5 µM (inactive); with SW-620, 3.06 µM (inactive); with IGROV-1, 20.4 µM (inactive). Further, the GI50 is 30.5 µM (inactive) in the experiment on Hs-578T; 16 µM (inactive) in the experiment on EKVX; 2.16 µM (inactive) in the experiment on COLO 205; 10.2 µM (inactive) with NCI-H23; 2.36 µM (inactive) in the experiment with NCI-H522; 10.4 µM (inactive) in the experiment with UO-31. For the same compound, the GI50 in the experiment with HCT-116 was 8.28 µM (inactive); with SF-295, 18.7 µM (inactive).

On to `NC(Cn1ccc(=O)c(O)c1)C(=O)O` (stereo not given) [MIMOSINE], for which the GI50 is > 100 µM (inactive) in the experiment with UACC-257; 49.4 µM (inactive) with SR; > 100 µM (inactive) in the experiment on DU-145; 72.6 µM (inactive) in the experiment with MOLT-4; > 100 µM (inactive) in the experiment with HT-29; > 100 µM (inactive) with CAKI-1. In addition, the GI50 with MDA-N, in the experiment with T47D, in the experiment on TK-10, in the experiment with KM12, with SW-620 and in the experiment on IGROV-1 was > 100 µM (inactive) each time. The GI50 in the experiment on Hs-578T, in the experiment on EKVX, with COLO 205, with NCI-H23, in the experiment with NCI-H522 and with UO-31 was > 100 µM (inactive) each time. For the same compound, the GI50 in the experiment with HCT-116 and in the experiment on SF-295 was > 100 µM (inactive) each time.
